According to publication PMC4793304 (Bioscience Reports, 2016):
Read-outs that look alike come from different tables or passages of the source.

Key:
mouse Pgp transporter [1] = biological target: T1, mouse Pgp transporter (Mus musculus, UniProt P21447); conditions: proton near the 1,4 β-linkage; 250 μM digoxin, 1 μM Pgp
Experimental: The STDD NMR procedure for membrane proteins was performed as described in [68]. […] The STDD NMR experiments were performed with a double pulsed field gradient spin echo pulse sequence to suppress background water, a 2s train of 50 ms shaped saturation pulses to selectively excite the protein and a total relaxation delay of 5 s [63]. […] Control experiments were performed under identical conditions with liposomes and the drugs. To produce the STDD NMR spectrum, ^1H STD NMR spectrum of liposomes with drugs was subtracted from the ^1H STD NMR spectrum of Pgp reconstituted in liposomes with drugs (ΔI). […] The STDD amplification factor was calculated using the following equation based on the STD amplification factor (eqn 5) [63]:
5 STDDamplificationfactor=L/PΔI/I0
where [P] is the protein concentration and I0 is the amplitude of the ^1H NMR peaks in the absence of saturating pulses.

human Pgp [2] = conditions: read-out: Km for ATPase activation; Caco-2 membrane vesicles containing human Pgp; cited from earlier work
mouse Pgp transporter [3] = biological target: T1, mouse Pgp transporter
Text: (§1) Because of the complexity of the model shown in Figure 6A, the kinetics curves in Figures 6B and 6C were fit using the COPASI software package.

mouse Pgp transporter [4] = biological target: T1, mouse Pgp transporter; assay: biochemical
Text: (§2) Drug-induced quenching of protein fluorescence with Pgp reconstituted in liposomes was investigated on an Olis DM 45 spectrofluorimeter (Olis Corp). […] Drug-induced fluorescence quenching was corrected (Fcorrected) for background fluorescence, dilution and inner filter effects with eqn (3) [57]:
3 Fcorrected=F−B10^ɛexbex+ɛembemQ/2
(§3) where F is the measured protein fluorescence, B is the background and [Q] is the quenching ligand concentration. The molar absorption coefficients (ε) for excitation and emission are εex and εem respectively. […] The pathlength (b) along the excitation and emission axes are bex and bem respectively. Drug-induced quenching of protein fluorescence from complexation of the ligand to the protein is known as static quenching, and can be used to estimate the drug's affinity. Drug-induced fluorescence quenching from random collisions with the protein is known as dynamic quenching [57]. Regardless of the nature of the quenching, the fluorescence quenching curves were fit to eqn (4) [57]:
4 Fcorrected=Fcorrected,0/1+KQ
(§4) where Fcorrected,0 is the protein fluorescence in the absence of a quenching ligand and K is the association constant (KA) or the Stern–Volmer quenching constant (KSV) in the case of a static and dynamic quenching processes respectively.

mouse Pgp transporter [5] = biological target: T1, mouse Pgp transporter; remark: listed apart in the source
[6] = test system: human Pgp from Caco-2 cells; conditions: read-out: Km for digoxin transport; cited from earlier work
mouse Pgp transporter [7] = biological target: T1, mouse Pgp transporter; assay: biochemical; remark: listed apart in the source
Text: as §1

mouse Pgp transporter [8] = biological target: T1, mouse Pgp transporter; remark: listed apart in the source
Text: as §2
3 Fcorrected=F−B10^ɛexbex+ɛembemQ/2
as §3
4 Fcorrected=Fcorrected,0/1+KQ
as §4

human Pgp [9] = conditions: read-out: Km for ATPase activation; human Pgp-enriched insect cell membranes; cited from earlier work
Pgp = conditions: read-out: Km for ATPase activation (implied); CR1R12 cells; maximal activation not reached at 1000 μM digoxin; cited from earlier work
mouse Pgp transporter [10] = biological target: T1, mouse Pgp transporter; conditions: 250 μM digoxin
Experimental: Control acrylamide titrations were performed in the presence of N-acetyl-L-tryptophanamide (NATA) to estimate the degree of non-specific quenching [55]. Fluorescence intensities were corrected for with eqn (3) [57]. To produce the Stern–Volmer plots, the Fcorrected,0/Fcorrected was plotted as a function of the acrylamide concentration. The degree of dynamic tryptophan quenching was estimated from the slopes of the Stern–Volmer curves, which is related to KSV by Fcorrected,0/Fcorrected = 1 + KSV[Q]

T1 sequence (P21447 whole entry): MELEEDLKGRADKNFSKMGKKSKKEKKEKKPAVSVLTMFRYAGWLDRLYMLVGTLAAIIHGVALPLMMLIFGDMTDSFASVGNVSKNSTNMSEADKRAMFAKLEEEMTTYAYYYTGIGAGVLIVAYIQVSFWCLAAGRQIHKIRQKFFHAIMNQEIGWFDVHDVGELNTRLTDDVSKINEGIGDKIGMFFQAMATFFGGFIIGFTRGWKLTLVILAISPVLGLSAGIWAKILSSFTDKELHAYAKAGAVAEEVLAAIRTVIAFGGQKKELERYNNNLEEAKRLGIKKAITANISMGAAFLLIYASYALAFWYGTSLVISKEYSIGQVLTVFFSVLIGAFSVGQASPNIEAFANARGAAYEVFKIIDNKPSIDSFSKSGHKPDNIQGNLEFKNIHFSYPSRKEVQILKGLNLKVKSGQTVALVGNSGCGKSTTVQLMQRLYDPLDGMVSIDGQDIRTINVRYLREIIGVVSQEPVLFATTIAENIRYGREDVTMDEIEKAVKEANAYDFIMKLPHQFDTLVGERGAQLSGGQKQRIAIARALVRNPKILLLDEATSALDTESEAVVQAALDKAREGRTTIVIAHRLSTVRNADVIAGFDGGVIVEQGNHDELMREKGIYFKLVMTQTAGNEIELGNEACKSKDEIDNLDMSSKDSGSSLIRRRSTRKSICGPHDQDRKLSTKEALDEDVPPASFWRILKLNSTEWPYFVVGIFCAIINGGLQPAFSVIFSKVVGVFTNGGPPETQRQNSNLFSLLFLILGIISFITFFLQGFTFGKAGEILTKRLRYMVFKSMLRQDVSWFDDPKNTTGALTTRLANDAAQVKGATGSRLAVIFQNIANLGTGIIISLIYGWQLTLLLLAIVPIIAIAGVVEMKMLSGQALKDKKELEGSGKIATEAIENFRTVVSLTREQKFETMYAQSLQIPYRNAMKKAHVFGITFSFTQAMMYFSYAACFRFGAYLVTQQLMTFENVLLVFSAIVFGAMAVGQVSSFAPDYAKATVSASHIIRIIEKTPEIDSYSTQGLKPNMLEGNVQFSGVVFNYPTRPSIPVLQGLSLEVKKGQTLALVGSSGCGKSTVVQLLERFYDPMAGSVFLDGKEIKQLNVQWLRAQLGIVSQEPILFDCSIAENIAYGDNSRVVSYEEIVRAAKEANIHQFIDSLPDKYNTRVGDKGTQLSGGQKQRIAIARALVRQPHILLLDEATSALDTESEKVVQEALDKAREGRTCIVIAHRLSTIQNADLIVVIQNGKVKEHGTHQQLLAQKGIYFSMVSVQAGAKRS

In the case of `C[C@H]1O[C@@H](O[C@H]2[C@@H](O)C[C@H](O[C@H]3[C@@H](O)C[C@H](O[C@H]4CC[C@@]5(C)[C@H](CC[C@@H]6[C@@H]5C[C@@H](O)[C@]5(C)[C@@H](C7=CC(=O)OC7)CC[C@]65O)C4)O[C@@H]3C)O[C@@H]2C)C[C@H](O)[C@@H]1O` [digoxin], the “highest STDD amplification factor” value (mouse Pgp transporter [1]) is listed as roughly 8, the Km (human Pgp [2]) is listed as 1.2 µM and the “average VMAX3” value (mouse Pgp transporter [3]; average from fitting all curves) is listed as 1981 ± 207 nmol/min/mg. For the same compound, the “VMAX4,5, ATPase activation from simultaneous binding of digoxin and verapamil” value (mouse Pgp transporter [3]; both drugs bound, estimated by fitting with COPASI) was 121 ± 139 nmol/min/mg, the “VMAX3 (digoxin, DDI model)” value (mouse Pgp transporter [3]; in the absence of verapamil) was 1983 nmol/min/mg and the Kd (mouse Pgp transporter [4]) was 100 ± 18 µM. The “maximum Pgp-coupled ATPase activity reached” value (mouse Pgp transporter [5]; 50 nM Pgp in liposomes, verapamil maximum at 8 μM) was roughly 1300 nmol/min/mg, the “fold activation of ATPase at maximum” value (mouse Pgp transporter [5]; relative to basal activity, verapamil at 8 μM) was roughly 2 fold and the “VMAX of drug-induced ATP hydrolysis” value (mouse Pgp transporter [5]; verapamil fit to substrate inhibition eqn 2, digoxin fit to Michaelis-Menten eqn 1) was 1344 ± 149.8 nmol/min/mg. The Km [6] was 385 µM, the Kd (mouse Pgp transporter [7]; KD3 (digoxin, DDI model), in the absence of verapamil) was 239 µM and the Kd (mouse Pgp transporter [7]; KD4, affinity of digoxin to Pgp in the presence of verapamil, estimated indirectly by fitting with COPASI) was 292 ± 89 µM. For the same compound, the Kd (mouse Pgp transporter [7]; average KD3, average from fitting all curves) was 206 ± 53 µM, the “K from fluorescence quenching” value (mouse Pgp transporter [8]; 37°C, no verapamil) was 0.0030 ± 0.0008 µM⁻¹ and the “quenching of Pgp fluorescence at saturating digoxin” value (mouse Pgp transporter [8]; excitation 280 nm, emission 333 nm, 25°C) was roughly 10%. The Km (human Pgp [9]) was 83.7 µM, the Km (Pgp) was greater than 500 µM and the “KSV (acrylamide Stern-Volmer slope of Pgp)” value (mouse Pgp transporter [10]) was 2.29 ± 0.12 M⁻¹.
